The values below come from a melting point compilation (Tetko et al.; mined from patent text by program, amines drawn as free bases though some values may be those of a salt).

A word on the melting point: it is the temperature, or range, at which the solid turns liquid.

`CN(C)CCCOc1ccc(-c2n[nH]c3ncccc23)cc1` showed a melting point of 176 to 177 °C.

Turning to `Clc1ccc(Cn2cc(CCN=c3sc4ccccc4s3)c3ccccc32)cc1`, the melting point lay within 120 to 121 °C.

`CCN(CC)C(=O)c1sc(Cl)nc1C(F)(F)F` registered a melting point of 40 to 41 °C.

`O=C1c2ccccc2-c2c1c(Cl)nc1cc(O)ccc21` had a melting point greater than 300 °C.

The compound `CN1CC(C(=O)CN2CCCCC2)CC2c3cccc4[nH]cc(c34)CC21` (centres undefined) came in with a melting point of 168 to 170 °C.

The compound `CNCc1c(C)c([N+](=O)[O-])cc2[nH]c(=O)c(=O)[nH]c12` returned a melting point of 260 to 261 °C.

`CCCCc1nc(Cl)c(C(=O)O)n1Cc1ccc2oc(-c3ccccc3C(=O)OCC)c(Br)c2c1` displayed a melting point of 148 to 150 °C.

In the case of `O=C(O)CCc1cn(Cc2cc(OCc3csc(-c4ccccc4)n3)cc(OCc3csc(-c4ccccc4)n3)c2)cc1-c1ccccc1`, the melting point is 78 to 79 °C.

`CCc1cnc2c(c1)S(=O)(=O)NC2=O` had a melting point of 199 to 201 °C.

Compound `CC=NNC1=NCCc2ccccc21` had a melting point of 152 to 154 °C.

In turn, `O=C(O)c1cc2cccc(I)c2s1` showed a melting point of 268 to 270 °C.

As for `CCOCc1nc2c(N)nc3cccnc3c2n1CC1(O)CCCCC1`, the melting point is 171 to 173 °C.

`COc1ccc(-c2cccc([N+](=O)[O-])c2C)cn1`: the melting point lay within 81 to 83 °C.

Regarding `CC(C)COP(C)(=O)CC(O)CN1C(=O)c2ccccc2C1=O` (centres undefined), the melting point was in the range of 110 to 113 °C.

Take `O=C1CCN(C(=O)c2ccc(Cl)cc2Cl)c2c(Cl)cccc21`: the melting point lay within 157 to 159 °C.

For `O=C(O)c1ccccc1-c1ccccc1CN1C(=O)c2ccccc2C1=O`, the melting point was 198 °C.

As to `COc1ccc(-n2nc(C(C)(C)C)cc2NC(=O)c2cccc3cc(Oc4cc(Cl)ncn4)ccc23)cc1`, the melting point was in the range of 163 to 164 °C.

In the case of `O=C1Nc2cccnc2N(C(=O)CCCl)c2ccccc21`, the melting point fell in the range of 216 to 218 °C.

Take `COc1ccc(S(=O)(=O)N2C(=O)[C@@](c3ccccc3OC)(N3C[C@H](OC(=O)CCC(=O)O)C[C@H]3C(=O)N(C)C)c3cc(Cl)ccc32)c(OC)c1`: the melting point lay in the range of 225 to 228 °C.

Compound `O=C(OC1COCCC1=O)c1ccccc1` (centres undefined) showed a melting point of 76 to 77 °C.

`COc1ccnc(C(C)S(=O)c2nc3cc(OC(F)(F)C(F)F)ccc3[nH]2)c1` (centres undefined) gave a melting point of 156 to 157 °C.

`O=C(O)COC1CCN(Cc2ccc3c(c2)Nc2nccnc2S3)CC1` gave a melting point of 204 to 207 °C.

Regarding `NC(=O)c1cc([N+](=O)[O-])cnc1C(Cl)Cl`, the melting point was 125 to 127 °C.

In the case of `CCCCC12CCC3=C(CCc4cc(OC)ccc43)C1CCC2=O` (centres undefined), the melting point lay within 105 to 108 °C.

With `Cc1nc(C(=O)O)cnc1Cl`, the melting point was 116 to 117 °C.

`CNC1([C@@H]2CCN(c3c(F)cc4c(=O)c(C(=O)O)cn([C@@H]5C[C@@H]5F)c4c3C)C2)CC1` came in with a melting point of 211 to 212 °C.

Regarding `O=c1[nH]c2ncc(-c3ccc(-c4nnc[nH]4)cc3)nc2n1CCN1CCCCC1`, the melting point was in the range of 194 to 197 °C.

With `CC(C)(C)c1cc(-c2nn(CCC(=O)O)c3ncccc23)cc(C(C)(C)C)c1O`, the melting point lay within 183 to 186 °C.

The compound `CC(=O)c1ccc(NCc2cc3c(cc2O)CCCO3)cc1` had a melting point of 177 to 179 °C.

`COCCOc1cc2ncc(C#N)c(Nc3cc(OC)c(OC)c(OC)c3)c2cc1OC`: the melting point fell in the range of 188 to 190 °C.

For the compound `CCCc1ccc(-c2ccc(-c3ccc(O)cc3)nn2)cc1`, the melting point fell in the range of 220 to 223 °C.

As to `COc1cc([N+](=O)[O-])ccc1F`, the melting point is 69 to 71 °C.

In turn, `CC1(C)CN(CC2COc3ccccc3C2)c2nc(-c3ccncn3)cc(=O)n2C1` (racemic) had a melting point of 84 to 86 °C.

On to `O=C(Cc1ccc(Cl)c(Cl)c1)N1CCN2CCCC[C@@H]21`, for which the melting point fell in the range of 102 to 104 °C.
